The values that follow come from patent US20240391902A1, “Crystalline Form of Compound” (Shenzhen Forward Pharmaceuticals Co., Limited, priority 2020, published 2024).

Data set [1] is described as follows: Solid solubility test (2 h and 24 h). Type of data set: physicochemical. The following applies: for Solubility measured at 24 h: 37° C., based on free base.
Data set [2] is described as follows: Solid storage stability test. The format is physicochemical. The following applies: for chemical and physical stability after storage: solid/25° C./60% RH/open/1 week and/or solid/60° C./closed container/1 week. The protocol: Each amorphous salt solid was weighed (two 2 mg samples were weighed for purity testing after solid storage stability study, and one 10 mg sample was weighed for XRPD testing after solid storage stability study) and placed in a glass vial. In a 25° C./60% RH solid storage stability test, the amorphous salt solid was placed in a 25° C./60% RH constant temperature and humidity chamber, and placed in the dark for 1 week (i.e. “solid/25° C./60% RH/open/1 week”), and in a 60° C. solid storage stability test, the amorphous salt solid was sealed in an oven at 60° C. and heated for 1 week in the dark (i.e. “solid/60° C./closed container/1 week”). Then the sample was taken out for purity testing, crystal form detection and appearance observation, respectively.

The nature of data set [3]: Solid solubility test (2 h and 24 h). Type of data set: physicochemical. The following applies: for Solubility measured at 2 h: 37° C., based on free base. How it is done:
5 samples were weighed for each amorphous salt solid (equivalent to 20 mg of free base), and 10 mL of the following solvents were respectively added: 0.1N HCl solution (pH 1.0), 50 mM phosphate buffer (pH 4.5), FeSSIF-V1 (pH 5.0), FaSSIF-V1 (pH 6.5) and SGF (pH 2.0), and stirred at 37° C. for 2 h. The suspension was then centrifuged at 37° C., the supernatant was measured for solubility by HPLC, and the solid fraction was measured for XRPD. The target solubility was at least 2 mg (based on free base)/mL.

Data set [4] can be described thus: Drug absorption test in male Han-Wister rats. The format is in vivo. The following applies: for F: intragastric versus intravenous administration, doses 80, 100, 93.2, 81.1 mg/kg for Example 1, 2, 3, 4. How it is done:
Intravenous administration: Three healthy male Han-Wister rats having a body weight of 250-350 g were provided by Beijing Vital River Laboratory Animal Technology Co., Ltd. The above compound of Example 1 was administered intravenously at the doses (calculated based on free base) listed in Table 1 below, respectively. Before administration and 15 min, 0.5 h, 1.0 h, 2.0 h, 4.0 h, 8.0 h, 12 h, and 24 h after administration, jugular vein puncture was performed to take 0.05 mL of blood, plasma was separated and prepared, and the drug concentration in the plasma was measured by liquid chromatography-tandem mass spectrometry (LC-MS) to obtain a drug concentration-time curve.
Intragastric administration: Twelve healthy male Han-Wister rats having a body weight of 250-350 g were provided by Beijing Vital River Laboratory Animal Technology Co., Ltd. and randomly divided into 4 groups. The above compounds of Example 1, Example 2, Example 3 and Example 4 were administered intragastrically at the doses (calculated based on free base) listed in Table 2 below, respectively. Before administration and 15 min, 0.5 h, 1.0 h, 2.0 h, 4.0 h, 8.0 h, 12 h, and 24 h after administration, jugular vein puncture was performed to take 0.05 mL of blood, plasma was separated and prepared, and the drug concentration in the plasma was measured by liquid chromatography-tandem mass spectrometry (LC-MS) to obtain a drug concentration-time curve.

Setting [5] is: Test BS1: solid/25° C./60% RH/open/1 week.
[6] abbreviates: Test BS2: solid/60° C./closed container/1 week.
Setting [7] is: intragastric administration, doses 80, 100, 93.2, 81.1 mg/kg for Example 1, 2, 3, 4 (calculated based on free base).

What is called Cmax is the highest concentration seen after dosing. By half-life is commonly meant the time needed for the level to fall by half in the phase considered.

“Also recorded” adds a separate entry of the source. Where two headings read alike, the source gives them in different places.

`C=CC(=O)Nc1cc(Nc2ncnc(-c3cn(C)c4ccccc34)n2)c(OC)cc1N(C)CCN(C)C` [Example 1]: the “pH measured at 24 h” value in data set [1] (Test ES3: FeSSIF-VI (pH 5.0)) was “(5.0)”; in data set [1] (Test ES4: FaSSIF-VI (pH 6.5)), “(6.8)”. Further, the “Solubility measured at 24 h” value in data set [1] (Test ES3: FeSSIF-VI (pH 5.0)) and in data set [1] (Test ES4: FaSSIF-VI (pH 6.5)) was above 2000 µg/mL each time. Further, the Color result in data set [2] (setting [5]) and in data set [2] (setting [6]) was “no color change” throughout. In addition, the “Morphology (XRPD crystallinity)” value in data set [2] (setting [5]) is listed as “amorphous (FIG. 89),”; in data set [2] (setting [6]), “medium crystallinity”. Further, in data set [2] (setting [5]), the “Morphology (agglomeration, appearance)” value is “no agglomeration”. Moreover, the “physical and chemical stability (in words)” value in data set [2] (solid/25° C./60% RH/open/1 week, listed as amorphous free base) was “good physical and chemical stability”; in data set [2] (solid/60° C./closed container/1 week, listed as amorphous free base) it was “transformed from amorphous to a moderate crystallinity”. Further, the “pH measured at 2 h” value in data set [3] (Test ES4: FaSSIF-V1 (pH 6.5)) is listed as “(6.8)”. Also, the “Solubility measured at 2 h” value in data set [3] (Test ES4: FaSSIF-V1 (pH 6.5)) is on record as above 2 mg/mL. For the same compound, the AUC0-t in data set [4] (setting [7]) was 3968 ng·h/mL; in data set [4] (male, Han-Wister, rat, plasma, iv, 1 mg/kg, intravenous administration, 1.0 mg/kg (calculated based on free base), rat plasma, read-out: AUC0-t), 446 ng·h/mL. Besides, the Cmax in data set [4] (setting [7]) was 583 ng/mL; in data set [4] (male, Han-Wister, rat, plasma, iv, 1 mg/kg, intravenous administration, 1.0 mg/kg (calculated based on free base), rat plasma, read-out: Cmax) it was 364 ng/mL. The F in data set [4] was 11.1%. Further, the half-life is 2.99 h in data set [4] (male, Han-Wister, rat, plasma, iv, 1 mg/kg, intravenous administration, 1.0 mg/kg (calculated based on free base), rat plasma) and 3.36 h in data set [4] (male, Han-Wister, rat, plasma, po, 81.1 mg/kg, intragastric administration, doses 80, 100, 93.2, 81.1 mg/kg for Example 1, 2, 3, 4 (calculated based on free base)).

Consider `C=CC(=O)Nc1cc(Nc2ncnc(-c3cn(C)c4ccccc34)n2)c(OC)cc1N(C)CCN(C)C` [Example 2], for which, in data set [2] (setting [5]), the Color entry is listed as “no color change”; the “Morphology (XRPD crystallinity)” value is listed as “amorphous (FIG. 90),”; the “Morphology (agglomeration, appearance)” value is “no agglomeration”. In data set [2] (setting [6]), the Color entry was “no color change”; the “Morphology (XRPD crystallinity)” value was “amorphous (FIG. 90),”; the “Morphology (agglomeration, appearance)” value is “no agglomeration”. Besides, the “chemical and physical stability after storage” value (from here on “chemical and physical stability”) in data set [2] (listed as 1 eq. hydrochloride salt) is listed as “chemically unstable”. Further, the “chemical and physical stability” value in data set [2] (listed as amorphous 1 eq. hydrochloride salt) is “chemically unstable”. Further, the “physical and chemical stability (in words)” value in data set [2] (solid/25° C./60% RH/open/1 week, listed as amorphous 1 eq. hydrochloride salt) was “good physical and chemical stability”. In data set [3] (Test ES4: FaSSIF-V1 (pH 6.5)), the “pH measured at 2 h” value is recorded as “(6.5)” and the “Solubility measured at 2 h” value was above 2 mg/mL. Besides, in data set [4] (setting [7]), the AUC0-t was 13060 ng·h/mL, the Cmax is given as 1024 ng/mL and the T1/2 is on record as 6.65 h. Moreover, the F in data set [4] is reported as 29.3%.

With `C=CC(=O)Nc1cc(Nc2ncnc(-c3cn(C)c4ccccc34)n2)c(OC)cc1N(C)CCN(C)C` [Example 3], in data set [2] (setting [5]), the Color entry was “slight color change”; the “Morphology (XRPD crystallinity)” value is reported as “amorphous (FIG. 91),”; the “Morphology (agglomeration, appearance)” value is reported as “partial agglomeration”. Also, in data set [2] (setting [6]), the Color entry was “no color change”; the “Morphology (XRPD crystallinity)” value is “amorphous (FIG. 91),”; the “Morphology (agglomeration, appearance)” value is given as “no agglomeration”. Also, the “chemical and physical stability” value in data set [2] (listed as 2 eq. hydrochloride salt) is “physically unstable”. In addition, the “chemical and physical stability” value in data set [2] (listed as amorphous 2 eq. hydrochloride salt) is given as “physically unstable”. In data set [2] (solid/25° C./60% RH/open/1 week, listed as amorphous 2 eq. hydrochloride salt), the “physical and chemical stability (in words)” value is “slight color change and showed a certain hygroscopicity (partial agglomeration)”. Also, the “physical and chemical stability (in words)” value in data set [2] (solid/60° C./closed container/1 week, listed as amorphous 2 eq. hydrochloride salt) is “good physical and chemical stability”. Besides, in data set [3] (Test ES4: FaSSIF-V1 (pH 6.5)), the “pH measured at 2 h” value is recorded as “(6.1)” and the “Solubility measured at 2 h” value is given as above 2 mg/mL. For the same compound, in data set [4] (setting [7]), the AUC0-t is 11213 ng·h/mL, the Cmax is 1020 ng/mL and the T1/2 is reported as 6.04 h. Moreover, in data set [4], the F worked out at 27.0%.

For `C=CC(=O)Nc1cc(Nc2ncnc(-c3cn(C)c4ccccc34)n2)c(OC)cc1N(C)CCN(C)C` [Example 9], the Color entry was “slight color change” in data set [2] (setting [5]) and “no color change” in data set [2] (setting [6]). The “Morphology (XRPD crystallinity)” value is given as “amorphous (FIG. 101),” in data set [2] (setting [5]) and “low crystallinity” in data set [2] (setting [6]). For the same compound, the “Morphology (agglomeration, appearance)” value in data set [2] (setting [5]) is reported as “agglomeration (FIG. 102)”. The “chemical and physical stability” value in data set [2] (listed as 1 eq. maleate salt) and in data set [2] (listed as amorphous 1 eq. maleate salt) was “chemically unstable; also recorded: physically unstable” in each case. Moreover, the “physical and chemical stability (in words)” value in data set [2] (solid/25° C./60% RH/open/1 week, listed as amorphous 1 eq. maleate salt) is “slight color change and showed a certain hygroscopicity (agglomeration)”; in data set [2] (solid/60° C./closed container/1 week, listed as amorphous 1 eq. maleate salt), “transformed from amorphous to a low crystallinity”. Also, in data set [3] (Test ES4: FaSSIF-V1 (pH 6.5)), the “pH measured at 2 h” value is recorded as “(6.1)”. Moreover, the “Solubility measured at 2 h” value in data set [3] (Test ES4: FaSSIF-V1 (pH 6.5)) is above 2 mg/mL.

Turning to `C=CC(=O)Nc1cc(Nc2ncnc(-c3cn(C)c4ccccc34)n2)c(OC)cc1N(C)CCN(C)C` [Example 10], the Color entry in data set [2] (setting [5]) and in data set [2] (setting [6]) was “no color change” in each case. Also, the “Morphology (XRPD crystallinity)” value in data set [2] (setting [5]) and in data set [2] (setting [6]) was “no crystal form” in each case. For the same compound, the “chemical and physical stability” value in data set [2] (listed as 1 eq. hydrobromide salt) is “chemically and physically stable”; in data set [2] (listed as crystalline 1 eq. hydrobromide salt), “chemically and physically stable”. Further, the “physical and chemical stability (in words)” value is “good physical and chemical stability” in data set [2] (solid/25° C./60% RH/open/1 week, listed as crystalline 1 eq. hydrobromide salt); “good physical and chemical stability” in data set [2] (solid/60° C./closed container/1 week, listed as crystalline 1 eq. hydrobromide salt). Besides, the “XRPD measured at 2 h (solid fraction)” value in data set [3] (Test ES4: FaSSIF-V1 (pH 6.5)) was “hydrobromide”. In addition, the “pH measured at 2 h” value in data set [3] (Test ES4: FaSSIF-V1 (pH 6.5)) is recorded as “(6.4)”. For the same compound, in data set [3] (Test ES5: SGF (pH 2.0)), the “Solubility measured at 2 h” value is above 2 mg/ml mg/mL.
